Each structure is given as a SMILES string.

14 compounds from patent publication US8318736B2, “HIV inhibiting 5,6-substituted pyrimidines” (Janssen R&D Ireland, priority 2006, dated 2012) can be followed below.

Series [1] concerns HIV strain MDR (L100I, K103N, Y181C, E138G, V1791, L2214F, V278V/I and A327A/V in HIV reverse transcriptase). Description: microbe, parasite or virus in culture. The series is classed as cell-based, HIV-1. As to conditions: Human immunodeficiency virus 1, read-out: MDR pEC50 (-log EC50) (converted). From the text:
(§1) Image analysis allowed very sensitive detection of viral infection.
“MDR” refers to a strain that contains mutations L100I, K103N, Y181C, E138G, V1791, L2214F, V278V/I and A327A/V in HIV reverse transcriptase.

For series [2], the system named is HIV strain K103N + Y181C (second column with this head). Kind of series: microbe, parasite or virus in culture. The series is classed as cell-based, HIV-1. As to conditions: Human immunodeficiency virus 1, 72 h, read-out: K103N + Y181C pEC50 (-log EC50) (converted).
Description: (§2) The ratio of CC50 to EC50 is defined as the selectivity index (SI) and is an indication of the selectivity of the anti-HIV activity of the inhibitor. The ultimate monitoring of HIV-1 infection and cytotoxicity was done using a scanning microscope. Image analysis allowed very sensitive detection of viral infection. Measurements were done before cell necrosis, which usually takes place about five days after infection, in particular measurements were performed three days after infection.
Series [3] has as its system HIV strain IIIB (wild type). Description: microbe, parasite or virus in culture. The settings on record: for EC50: Human immunodeficiency virus 1, IIIB, 72 h, read-out: IIIB pEC50 (-log EC50) (converted); for pSI (IIIB) (-log SI; SI = ratio of CC50 to EC50): strain IIIB, CC50 in mock-infected MT4 CMV-EGFP cells. The method, then: Compounds of the invention were tested for their potency against wild type virus and clinically isolated HIV strains harboring one or more mutations associated with resistance to reverse transcriptase inhibitors. Antiviral activity was evaluated using a cellular assay performed according to the following procedure.
The human T-cell line MT4 was engineered with Green Fluorescent Protein (GFP) and a HIV-specific promoter, HIV-1 long terminal repeat (LTR). This cell line, designated MT4 LTR-EGFP, can be used for the in vitro evaluation of anti-HIV activity of investigational compounds. In HIV-1 infected cells, the Tat protein is produced, which upregulates the LTR promotor and eventually leads to stimulation of the GFP reporter production, allowing to measure ongoing HIV-infection fluorometrically.
Analogously, MT4 cells were engineered with GFP and the constitutional cytomegalovirus (CMV) promotor. This cell line was designated MT4 CMV-EGFP, and can be used for the in vitro evaluation of cytotoxicity of investigational compounds. […] Cytotoxic investigational compounds reduce GFP levels of mock-infected MT4 CMV-EGFP cells.
The ratio of CC50 to EC50 is defined as the selectivity index (SI) and is an indication of the selectivity of the anti-HIV activity of the inhibitor. The ultimate monitoring of HIV-1 infection and cytotoxicity was done using a scanning microscope. […] Measurements were done before cell necrosis, which usually takes place about five days after infection, in particular measurements were performed three days after infection.
The columns IIIB, L100I, etc. in the table list the pEC50 (−log EC50) values against various strains IIIB, L100I, etc.; pSI lists the −log SI values.
Strain IIIB is wild type HIV strain.

The test system of series [4] is HIV strain K103N + Y181C. Description: microbe, parasite or virus in culture. The series is classed as cell-based, HIV-1. As to conditions: Human immunodeficiency virus 1, 72 h, read-out: K103N + Y181C pEC50 (-log EC50) (converted).
Description: as §2
The subject of the next series is HIV strain L100I + K103N. Description: microbe, parasite or virus in culture. It counts as cell-based, HIV-1. The settings on record: Human immunodeficiency virus 1, 72 h, read-out: L100I + K103N pEC50 (-log EC50) (converted).
Description: as §1

As a reminder, the EC50 is the concentration that produces a half-maximal response. Usually melting point stands for the temperature of the solid-liquid transition. Compound `COCc1nc(Nc2ccc(C#N)cc2)nc(Nc2c(C)cc(/C=C/C#N)cc2C)c1-c1cccnc1` [Compound 2] registered a melting point of 216 °C. Besides, the EC50 in series [1] was 240 nM. In the series on HIV strain K103N + Y181C [2], the EC50 is 15.8 nM. Further, in series [3], the EC50 was 3.02 nM and the “pSI (IIIB) (-log SI; SI = ratio of CC50 to EC50)” value was found to be 3.65. For the same compound, in the series with HIV strain K103N + Y181C [4], the EC50 is 21.4 nM. In the series with HIV strain L100I + K103N, the EC50 is 4.17 nM.
For the compound `COCc1nc(Nc2ccc(C#N)cc2)nc(Nc2ccc(/C=C/C#N)cc2)c1C#Cc1cccnc1`, the melting point stood at 210 °C.
`COCc1nc(Nc2ccc(C#N)cc2)nc(Nc2c(C)cc(/C=C/C#N)cc2C)c1-c1ccco1` [Compound 6] had a melting point of 105 °C. For the same compound, in series [1], the EC50 is 89.1 nM. In addition, in the series with HIV strain K103N + Y181C [2], the EC50 is 17.4 nM. Besides, in series [3], the EC50 is 3.63 nM and the “pSI (IIIB) (-log SI; SI = ratio of CC50 to EC50)” value is recorded as 3.61. In addition, the EC50 in the series on HIV strain K103N + Y181C [4] was 16.6 nM. In the series with HIV strain L100I + K103N, the EC50 is 3.63 nM.
As for `COCc1nc(Nc2ccc(C#N)cc2)nc(Nc2c(C)cc(/C=C/C#N)cc2C)c1-c1ccsc1` [Compound 5], the melting point stood at 125 °C. Moreover, the EC50 in series [1] was 324 nM. The EC50 with HIV strain K103N + Y181C [2] was 25.1 nM. In series [3], the EC50 was 4.37 nM and the “pSI (IIIB) (-log SI; SI = ratio of CC50 to EC50)” value is reported as over 3.76. Moreover, the EC50 with HIV strain K103N + Y181C [4] is 21.4 nM. Also, the EC50 in the series on HIV strain L100I + K103N is 5.01 nM.
`COCc1nc(Nc2ccc(C#N)cc2)nc(Nc2c(C)cc(/C=C/C#N)cc2C)c1-c1cccs1` [Compound 4] returned a melting point of 130 °C. Moreover, in series [1], the concentration giving a half-maximal response (EC50) is 138 nM. In the series on HIV strain K103N + Y181C [2], the EC50 was 18.6 nM. Also, in series [3], the concentration giving a half-maximal response (EC50) is 4.57 nM and the “pSI (IIIB) (-log SI; SI = ratio of CC50 to EC50)” value turned out to be 3.73. The EC50 with HIV strain K103N + Y181C [4] was 15.5 nM. Also, the EC50 with HIV strain L100I + K103N was 3.8 nM.
`COCc1nc(Nc2ccc(C#N)cc2)nc(Nc2c(C)cc(/C=C/C#N)cc2C)c1-c1ccoc1` [Compound 7] yielded a melting point of 122 °C. The EC50 in series [1] is 91.2 nM. Also, the EC50 in the series on HIV strain K103N + Y181C [2] was 12.6 nM. Also, in series [3], the EC50 was 3.72 nM and the “pSI (IIIB) (-log SI; SI = ratio of CC50 to EC50)” value was 3.75. In addition, the EC50 with HIV strain K103N + Y181C [4] is 12.3 nM. The EC50 in the series on HIV strain L100I + K103N is 2.4 nM.
For `COCc1nc(Nc2ccc(C#N)cc2)nc(Nc2c(C)cc(/C=C/C#N)cc2C)c1-c1cnccc1OC` [Compound 1], the melting point stood at 120 °C. Also, the EC50 in series [1] was 2400 nM. Besides, the EC50 in the series with HIV strain K103N + Y181C [2] is 83.2 nM. Further, in series [3], the EC50 is 12.9 nM and the “pSI (IIIB) (-log SI; SI = ratio of CC50 to EC50)” value is recorded as over 3.28. For the same compound, in the series on HIV strain K103N + Y181C [4], the EC50 was 93.3 nM. Also, the EC50 with HIV strain L100I + K103N is 63.1 nM.
In the case of `COCc1nc(Nc2ccc(C#N)cc2)nc(Nc2c(C)cc(/C=C/C#N)cc2C)c1C(C)O` (centres unmarked) [Compound 37], the EC50 in series [1] is 105 nM; in the series on HIV strain K103N + Y181C [2], 11.5 nM; in series [3], 1.45 nM; in the series on HIV strain K103N + Y181C [4] it was 6.03 nM; in the series on HIV strain L100I + K103N it was 2.45 nM. For the same compound, the “pSI (IIIB) (-log SI; SI = ratio of CC50 to EC50)” value in series [3] was 3.95.
With `COCc1nc(Nc2ccc(C#N)cc2)nc(Nc2c(C)cc(/C=C/C#N)cc2C)c1C(O)c1nccs1` (centres unmarked) [Compound 38], the EC50 in series [1] is 174 nM; with HIV strain K103N + Y181C [2], 12 nM; in series [3], 2.69 nM; in the series on HIV strain K103N + Y181C [4], 12.3 nM; in the series with HIV strain L100I + K103N it was 3.72 nM. The “pSI (IIIB) (-log SI; SI = ratio of CC50 to EC50)” value in series [3] was found to be 3.81.
In turn, `COCc1nc(Nc2ccc(C#N)cc2)nc(Nc2ccc(/C=C/C#N)cc2)c1/C=C/c1ccc(C)cc1` registered a melting point of 139 °C.
On the same count and under the same terms, as for `COCc1nc(Nc2ccc(C#N)cc2)nc(Nc2ccc(/C=C/C#N)cc2)c1/C=C/c1ccc(OC)cc1`, the figure is 207 °C.
In turn, `COCc1nc(Nc2ccc(C#N)cc2)nc(Nc2c(C)cc(/C=C/C#N)cc2C)c1-c1ccncc1` [Compound 3] gave a melting point of 172 °C. Moreover, in series [1], the EC50 was 355 nM. Besides, the EC50 in the series on HIV strain K103N + Y181C [2] was 22.4 nM. In series [3], the EC50 is 3.31 nM and the “pSI (IIIB) (-log SI; SI = ratio of CC50 to EC50)” value is over 3.88. The EC50 with HIV strain K103N + Y181C [4] is 29.5 nM. Also, the EC50 with HIV strain L100I + K103N is 9.33 nM.
In the case of `C=CC(O)c1c(COC)nc(Nc2ccc(C#N)cc2)nc1Nc1c(C)cc(/C=C/C#N)cc1C` (centres unmarked) [Compound 36], the EC50 was 66.1 nM in series [1]; 12.6 nM in the series on HIV strain K103N + Y181C [2]; 2.63 nM in series [3]; 8.71 nM in the series with HIV strain K103N + Y181C [4]; 3.47 nM in the series with HIV strain L100I + K103N. Also, the “pSI (IIIB) (-log SI; SI = ratio of CC50 to EC50)” value in series [3] is 3.85.
The compound `C=C(OCC)c1c(COC)nc(Nc2ccc(C#N)cc2)nc1Nc1ccc(/C=C/C#N)cc1` returned a melting point of 102 °C.
